Experiment [1] relates to S. thermophilus CS1980. The experiment can be described thus: Lactose hydrolysis in POM buffer by permeabilized S. thermophilus CS1980 whole-cell catalyst. The format is cell-based, Streptococcus thermophilus. To be noted: for stability of the whole-cell catalyst: permeabilized 10 minutes at 28° C. (45% (v/v) ethanol or 2.5 μg/ml nisin), hydrolysis 50° C. As to the method:
S. thermophilus CS1980 was grown in 500-ml Erlenmeyer flasks containing 200 ml of medium at 37° C. for 16 h without agitation. As inoculum, 2 ml of a 24 hour, outgrown culture was used. Cells were collected by centrifugation at 10,000 g for 10 min at 4° C., washed once with sterile POM buffer (50 mM K2HPO4/KH2PO4, 1 mM MgCl2, pH 7.4) and finally re-suspended in POM buffer to an optical density (600 nm) of 0.33, corresponding to approximately 100 mg/l dry cell weight. The cell suspension was kept on ice until use. For permeabilization, cell suspensions were dispensed into sterile tubes (1 ml per tube) and centrifuged in a microcentrifuge at top speed for 5 min at 4° C.
Samples were withdrawn at different time points, and conversion of lactose (formation of glucose and galactose) was determined by HPLC analysis.
The concentrations of sugars (carbohydrate monomers and dimers) were determined using an Ultimate 3000 high-pressure liquid chromatography system (Dionex, Sunnyvale, CA) equipped with an Aminex HPX-87H column (Bio-Rad, Hercules, CA) and a Shodex RI-101 detector (Showa Denko KK, Tokyo, Japan). The column oven temperature was set to 30° C., and the mobile phase consisted of 5 mM H2SO4 with a flowrate of 0.5 ml/min.
Hydrolysis took place at 50° C.
Hydrolysis of lactose in POM buffer (50 g/l lactose) at 50° C. was carried out at a cell concentration of approximately 100 mg/l.
Hydrolysis of lactose (50 g/1) was carried out in POM buffer at 50° C.

In experiment [2] the test system is S. thermophilus. The following applies: Somkuti et al., 1998; cited from earlier work.
Experiment [3] concerns S. thermophilus strains from starter culture ST057. The experiment can be described thus: Lactose hydrolysis in POM buffer by nisin-permeabilized S. thermophilus strains from starter culture ST057. The class given is cell-based, Streptococcus thermophilus. The protocol: Streptococcus thermophilus (S. thermophilus) strain CS1980 was isolated from a Danish yoghurt (same as used in example 1). Additional S. thermophilus strains were isolated from starter cultures kindly provided by Sacco Srl. Italy (ST057, ST022).
Hydrolysis was performed at 50° C.

The test system of experiment [4] is L. lactis strain MG1363 ΔldhB ΔldhX Δpta ΔadhE ΔbutBA ΔaldB (RD04). The experiment can be described thus: Alpha-acetolactate synthase activity of nisin-permeabilized L. lactis RD04 (pyruvate to alpha-acetolactate, HPLC). The class given is cell-based, Lactococcus lactis. The following applies: 100 μg/ml nisin, 15 min 37° C.; 200 mM sodium pyruvate. The protocol: A modified L. lactis strain MG1363 lacking alpha-acetolactate decarboxylase activities was used in the present experiment. More specifically, the strain RD04 was L. lactis strain MG1363 ΔldhB ΔldhX Δpta ΔadhE ΔbutBA ΔaldB, while harboring an expression vector for overexpressing native alpha-acetolactate synthase (Als).
Alpha-acetolactate synthase activity was determined by investigating the conversion rate of pyruvate to alpha-acetolactate, using HPLC measurements of alpha-acetolactate formation.

Experiment [5] deals with S. thermophilus ST057-1. The experiment can be described thus: Hydrolysis of lactose in milk by nisin-permeabilized S. thermophilus ST057-1. The class given is cell-based, Streptococcus thermophilus. As to the method:
Nisin-treated S. thermophilus ST057-1 was applied in hydrolysis of lactose in milk, at cell concentration of approximately 100 mg/l or 1 g/l. […] The starting concentration of lactose in the milk used was 52 g/l. Hydrolysis took place at 50° C.
Hydrolysis of lactose in milk (52 g/l lactose) using nisin-treated cells was carried out at a cell concentration of approximately 1 g/l. Hydrolysis took place at 50° C.

Where only a bound is given, the exact number is not on record here.

Results on two compounds are retold here after patent publication US12571019B2, “Nisin-permeabilized microbial cell catalysts” (DANMARKS TEKNISKE UNIVERSITET, priority 2020, dated 2026).

As to `CCO` [ethanol], the “stability of the whole-cell catalyst” value in experiment [1] was “compromised the stability of the whole-cell catalyst”. For the same compound, the “permeabilizing agent effect on measurable beta-galactosidase activity” value in experiment [2] was “efficient as a permeabilizing agent”.
nisin A: the “time to reach 80% hydrolysis” value is not above 4 h in experiment [3] (POM buffer, 100 mg/l whole-cell catalyst, 50° C.) and “more than 12 hours” in experiment [5] (milk (52 g/l lactose), 100 mg/l whole-cell catalyst, 50° C.). Besides, the “conversion of the lactose” value in experiment [3] (two strains from starter culture ST057, 2.5 μg/ml nisin 10 min 28° C., hydrolysis 50° C., in less than half of the time of the other strains) is more than 90%. Moreover, the “conversion of pyruvate to alpha-acetolactate compared to non-permeabilized cells” value in experiment [4] is listed as “performed much better than non-permeabilized cells”. For the same compound, the “conversion rate on increasing the whole-cell catalyst concentration” value in experiment [5] (milk, 1 g/l vs 100 mg/l cells, 50° C.) is given as “significantly increased”. The “lactose conversion in milk at different permeabilization temperature” value in experiment [5] (permeabilization 28° C. vs 37° C., 1 g/l cells, hydrolysis 50° C.) is given as “performed equally well”. In addition, in experiment [1] (2.5 μg/ml nisin 10 min, 100 mg/l cells, 50 g/l lactose in POM buffer, hydrolysis at 50° C., within 24 hours), the lactose hydrolyzed is on record as 95%. Besides, the “lactose conversion compared to control and ethanol-permeabilized cells” value in experiment [1] (2.5 μg/ml nisin, 10 minutes 28° C., 50 g/l lactose POM buffer, 50° C., 100 mg/l cells) is listed as “perform better than the control as well as the ethanol-permeabilized cells”. In experiment [1] (30 minutes vs 10 minutes permeabilization), the “effect of prolonged nisin treatment” value is given as “does not give better results”. The “efficiency of permeabilization at different permeabilization temperatures” value in experiment [1] (permeabilization at 28° C. and 37° C., 2.5 μg/ml nisin 10 min) is reported as “equally efficient”; in experiment [1] (permeabilization temperatures 28-50° C., 2.5 μg/ml nisin), “equally efficient”. For the same compound, the “cell stability after permeabilization” value in experiment [1] (permeabilization at 55° C., 2.5 μg/ml nisin) is given as “seemed to be compromised”. Moreover, the “stability of the whole-cell catalyst” value in experiment [1] was “higher stability”.
